Like-named read-outs stand apart in the source and are kept apart here.
What was measured:
[1] = target: T1, Bovine Adrenal Estrogen Sulfotransferase (Bos taurus, UniProt P19217); experiment: Inhibition of bovine adrenal estrogen sulfotransferase (estrone sulfurylation); assay type: biochemical
T1 construct: The enzyme was isolated from the bovine adrenals; from tissue; host or cells: bovine adrenals; purified by ammonium sulfate fractionation and chromatography on DEAE-cellulose or DEAE-Sephadex A-50
T1 sequence (P19217 1-295): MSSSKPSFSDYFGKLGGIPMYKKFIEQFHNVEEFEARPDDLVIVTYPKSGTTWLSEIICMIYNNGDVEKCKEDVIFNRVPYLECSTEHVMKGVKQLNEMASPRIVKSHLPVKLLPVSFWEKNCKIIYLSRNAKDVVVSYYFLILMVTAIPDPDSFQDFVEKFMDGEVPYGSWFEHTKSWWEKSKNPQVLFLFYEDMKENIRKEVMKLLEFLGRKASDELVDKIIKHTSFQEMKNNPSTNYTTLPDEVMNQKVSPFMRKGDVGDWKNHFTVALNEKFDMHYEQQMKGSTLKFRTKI
Procedure: Materials are evaluated for activity as estrogen sulfotransferase inhibitors by the method of Rozhin et al, Journal of Biological Chemistry, 252:7214-7220 (October 25, 1977), herein incorporated by reference.
Isolation of Estrogen Sulfotransferase (EC 2.8.2.4). The enzyme was isolated from the bovine adrenals and purified by ammonium sulfate fractionation and column chromatography on DEAE-cellulose or DEAE-SephadexA-50 [Rozhin et al (1974)].
Standard Enzyme Assay. The incubation mixtures contained the following in a total volume of 0.2 ml: 0.4 mM P-Ado-PS; 2 to 23 μM estrone (3-hydroxy-1,3,5(10)-estratriene-17-one), 5×10^5 dpm of [6,7-^3 H]estrone; 5 mM magnesium acetate; 0.19 M Tris/HCl buffer (pH 8.1 at 37°); 5 ug of the enzyme; and 25 μM dithiothreitol. After a 10-min incubation (in the presence of a constant amount of inhibitor and a variable amount of estrone), the boiled mixtures were supplemented with 5 μg of aqueous estrone sulfate. The remaining [^3 H]estrone was extracted three times with 0.3 ml of ethyl ether. The residual ether was removed and the volume adjusted to 0.5 ml with methanol. A sample (25 μl) was applied, together with 10 μg of methanolic estrone sulfate marker, to type SG chromatography media (Gelman Instrument Co., Ann Arbor, Mich.), and developed with chloroform/acetone/acetic acid (110:35:6). After drying the sheet, samples were visualized by spraying with methylene blue (25 mg in 100 ml of 0.05 N H2 SO4), punched out with a cork borer, and counted in 10 ml of dioxane counting liquid. A blank employing a boiled enzyme sample was incubated and the recorded counts were substracted from each determination. The total corrected counts, representing steroid sulfate ester, were converted to nanomoles utilizing the specific activity of [^3 H]estrone. An enzyme unit was defined as that quantity of enzyme which synthesized 1 nmol of estrone sulfate in 1 min under chosen conditions. […] When nonsubstrate steroids were used as the inhibitors, the procedure for the enzyme assay was as described earlier [Rozhin et al (1974)], utilizing 5 μg of enzyme, P-Ado-[^35 S]PS, and unlabeled estrone.
Data Processing. The initial velocity analysis was carried out keeping the concentration of P-Ado-PS at saturation level, varying the estrone concentration and keeping the concentration of the inhibitor at a fixed level. Preliminary plots of the data were made in the double reciprocal form (l/v versus l/[S]), and in the form of replots of slopes (and intercepts) versus inhibitor concentration. On the basis of these plots, the proper inhibition pattern was chosen for each experiment and the data points were fitted to the appropriate equation.
Linear competitive inhibition: [formula]
Hyperbolic competitive inhibition: [formula]
Slope-parabolic non-competitive inhibition: [formula]
All calculations were performed using Cleland's Fortran programs (Adv. Enzymol., 29:1-32). The programs gave the values of Km, Vmax, and inhibition constants.
Fractional Inhibition. From kinetic experiments, Ki was calculated as described above under "Data Processing" after making replots of slopes (and/or intercepts) versus inhibitor concentration. […] Substituting v and vi from the corresponding rate equations in the absence of (v=(Vmax [S])/(Km +[S])) and presence of a (competitive) inhibition (Equation 1), the following relationship for FI is obtained: [formula] After substituting [S], Km, and [I] (see above), the equation for the fractional (competitive) inhibition simplifies to: [formula] and the mathematical relationship between FI and Ki of competitive inhibitors is represented by the continuous curve in FIG. 2 in Rozhin et al., J. Biol. Chem., 252, 7214-7220, 1977. The dashed line represents the relationship between FI and the Ki of pure noncompetitive inhibition derived mathematically in an analogous manner and expressed as [formula] Since [I]=22.2 μM, [formula]

[2] = system: estrogen sulfotransferase; experiment: Blocking of estrogen sulfotransferase activity by 3-methoxy-4-nitroestrone (Example 4); assay type: biochemical; settings: molar ratio of 10:1
[3] = system: 17β-estradiol receptor (rabbit uterus 100,000×g supernatant); experiment: Competitive binding: effect on binding of 17β-estradiol (E2) by rabbit uterine tissue; settings: 2000-fold excess; 0.7 nM tritiated 17β-estradiol; 2 h on ice
Procedure: Competitive binding experiments were carried out utilizing the 100,000×g supernatant from rabbit uterus maintained at 4° C. Unlabeled competitive estrogens were added to the incubation 10 min. before tritiated 17β-estradiol. Incubations were carried out in quadruplicate for 2 h on ice. [2,4,6,7-^3 H]-17-Estradiol was added to 0.5 ml of supernatant (0.69 mg protein) at a concentration of 0.7 nM. Radioactivity in the bound 17β-estradiol was assayed by the dextran-coated charcoal (1:10) procedure.

[4] = pH 8.1, read-out: Fractional Inhibition (Table II)
[5] = inhibitors 2 to 4 and 9 to 12; from kinetic experiments; read-out: Ki (Table II), not among those calculated
[6] = pH 8.1; read-out: Fractional Inhibition (Table II)
[7] = inhibitors 2, 7 and 8; competitive inhibition equation; read-out: Ki (Table I), calculated from fractional inhibition (competitive inhibition)
[8] = pH 8.1; read-out: Fractional Inhibition (Table I)
[9] = pH 8.1, read-out: Fractional Inhibition (Table I)
[10] = inhibitors 3 to 6, 12 and 16; from kinetic experiments; read-out: Ki (Table I), determined experimentally
[11] = inhibitors 1 and 5 to 8; calculated from fractional inhibition; read-out: Ki (Table II), calculated from Equation 4 (competitive inhibition)

## C[C@]12CC[C@@H]3c4ccc(O)cc4CC[C@H]3[C@@H]1C[C@@H](O)[C@@H]2O [1,3,5(10)Estratriene-3,16α,17β-triol]
[1]
  Ki: 8.2 µM
[1]; [4]
  inhibition at 22.2 µM: 66%

## C[C@]12CC[C@@H]3c4ccc(O)cc4CC[C@H]3[C@@H]1C[C@@H](O)C2 [1,3,5(10)Estratriene-3,16α-diol]
[1]; [5]
  Ki: 1.3 µM
[1]; [6]
  inhibition at 22.2 µM: 89%

## C[C@]12CC[C@@H]3c4ccc(O)cc4CC[C@H]3[C@@H]1C[C@H](O)[C@@H]2O [1,3,5(10)Estratriene-3,16β,17β-triol]
[1]
  Ki: 5.5 µM
[1]; [4]
  inhibition at 22.2 µM: 72%

## CC(=O)Oc1ccc2c(c1)CC[C@@H]1[C@@H]2CC[C@]2(C)[C@@H](O)CC[C@@H]12 [1,3,5(10)Estratriene-3,17β-diol-3-acetate]
[1]; [7]
  Ki: 17 µM
[1]; [8]
  inhibition at 22.2 µM: 39%

## C[C@]12CC[C@@H]3c4ccc(OC(=O)c5ccccc5)cc4CC[C@H]3[C@@H]1CC[C@@H]2O [1,3,5(10)Estratriene-3,17β-diol-3-benzoate]
[1]
  Ki: 90 µM
[1]; [9]
  inhibition at 22.2 µM: 11%

## C[C@@]12CCC[C@H]1[C@@H]1CCc3cc(O)ccc3[C@H]1CC2 [1,3,5(10)Estratriene-3-ol]
[1]; [10]
  Ki: 3.5 µM
[1]; [8]
  inhibition at 22.2 µM: 67%

## C[C@]12CC[C@@H]3c4ccccc4CC[C@H]3[C@@H]1CC[C@@H]2O [1,3,5(10)Estratriene-17β-ol]
[1]; [7]
  Ki: 16 µM
[1]; [8]
  inhibition at 22.2 µM: 41%

## C[C@@]12CCC[C@H]1[C@@H]1CCc3ccccc3[C@H]1CC2 [1,3,5(10)Estratriene]
[1]; [8]
  inhibition at 22.2 µM: 0%

## C[C@]12CC[C@@H]3c4cc(Br)c(O)c(Br)c4CC[C@H]3[C@@H]1CC[C@@H]2O [2,4-Dibromo-1,3,5(10)estratriene-3,17β-diol]
[1]; [11]
  Ki: 0.11 µM
[1]; [6]
  inhibition at 22.2 µM: 99%

## C[C@]12CC[C@@H]3c4cc([N+](=O)[O-])c(O)c([N+](=O)[O-])c4CC[C@H]3[C@@H]1CC[C@@H]2O [2,4-Dinitro-1,3,5(10)estratriene-3,17β-diol]
[1]
  Ki: 4.3 µM
[1]; [4]
  inhibition at 22.2 µM: 72%

## C[C@]12CC[C@@H]3c4cc(N)c(O)cc4CC[C@H]3[C@@H]1CC[C@@H]2O [2-Amino-1,3,5(10)estratriene-3,17β-diol]
[1]; [11]
  Ki: 3.5 µM
[1]; [6]
  inhibition at 22.2 µM: 76%

## C[C@]12CC[C@@H]3c4cc([N+](=O)[O-])c(O)cc4CC[C@H]3[C@@H]1CC[C@@H]2O [2-Nitro-1,3,5(10)estratriene-3,17β-diol]
[1]; [5]
  Ki: 2.4 µM
[1]; [6]
  inhibition at 22.2 µM: 80%

## C[C@]12CC[C@@H]3c4ccc(O)cc4C(=O)C[C@H]3[C@@H]1CC[C@@H]2O [3,17β-Dihydroxy-1,3,5(10)-estratriene-6-one]
[1]
  Ki: 5.5 µM
[1]; [4]
  inhibition at 22.2 µM: 69%

## C[C@]12CC[C@@H]3c4ccc(O)cc4CC[C@H]3[C@@H]1CCC2=O [3-Hydroxy-1,3,5(10)estratriene-17-one]
[1]
  Ki: 4.9 µM
[1]; [8]
  inhibition at 22.2 µM: 65%

## COc1ccc2c(c1)CC[C@@H]1[C@@H]2CC[C@]2(C)[C@@H](O)CC[C@@H]12 [3-Methoxy-1,3,5(10)estratriene-17β-ol]
[1]; [10]
  Ki: 4.8 µM
[1]; [8]
  inhibition at 22.2 µM: 61%

## COc1ccc2c(c1[N+](=O)[O-])CC[C@@H]1[C@@H]2CC[C@]2(C)C(=O)CC[C@@H]12 [3-Methoxy-4-NO2-1,3,5(10)-estratriene-17-one]
[1]; [11]
  Ki: 4.3 µM
[1]; [6]
  inhibition at 22.2 µM: 72%
[2]
  blocked activity of estrogen sulfotransferase: > 90%
[3]
  blocking of binding of 17β-estradiol to its receptor: not blocked

## C[C@]12CC[C@H](O)CC1=CC[C@@H]1[C@@H]2CC[C@]2(C)C(=O)CC[C@@H]12 [3β-Hydroxy-5-androstene-17-one]
[1]
  Ki: 170 µM
[1]; [9]
  inhibition at 22.2 µM: 21%

## C[C@]12CC[C@H](O)C[C@H]1CC[C@@H]1[C@@H]2CC[C@]2(C)C(=O)CC[C@@H]12 [3β-Hydroxy-5β-androstane-17-one]
[1]
  Ki: 302 µM
[1]; [9]
  inhibition at 22.2 µM: 13%

## C[C@]12CC[C@@H]3c4ccc(O)c(N)c4CC[C@H]3[C@@H]1CC[C@@H]2O [4-Amino-1,3,5(10)estratriene-3,17β-diol]
[1]; [11]
  Ki: 3.5 µM
[1]; [6]
  inhibition at 22.2 µM: 76%

## C[C@]12CC[C@@H]3c4ccc(O)c([N+](=O)[O-])c4CC[C@H]3[C@@H]1CC[C@@H]2O [4-Nitro-1,3,5(10)estratriene-3,17β-diol]
[1]; [5]
  Ki: 0.15 µM
[1]; [6]
  inhibition at 22.2 µM: 98%

## C[C@]12CC[C@H]3[C@@H](CC=C4C[C@@H](O)CC[C@@]43C)[C@@H]1CC[C@@H]2O [5-Androstene-3β,17β-diol]
[1]
  Ki: 35 µM
[1]; [9]
  inhibition at 22.2 µM: 39%

## C[C@@]12CCC[C@H]1[C@@H]1CC=C3C[C@@H](O)CC[C@]3(C)[C@H]1CC2 [5-Androstene-3β-ol]
[1]; inhibitors 10, 11 and 13 to 15; Equation 5 (noncompetitive); read-out: Ki (Table I), calculated from fractional inhibition (noncompetitive inhibition)
  Ki: 50 µM
[1]; [8]
  inhibition at 22.2 µM: 31%

## C[C@@]12CCC[C@H]1[C@@H]1CC=C3CCCC[C@]3(C)[C@H]1CC2 [5-Androstene]
[1]; [8]
  inhibition at 22.2 µM: 0%
[1]; summary statement
  estrogen sulfotransferase inhibition, in words: inactive

## C[C@]12CC[C@H](O)C[C@@H]1CC[C@@H]1[C@@H]2CC[C@]2(C)[C@@H](O)CC[C@@H]12 [5α-Androstane-3β,17β-diol]
[1]
  Ki: 47 µM
[1]; [9]
  inhibition at 22.2 µM: 32%

## C[C@]12CCC(=O)C[C@@H]1CC[C@@H]1[C@@H]2CC[C@]2(C)[C@@H](O)CC[C@@H]12 [17β-Hydroxy-5α-androstane-3-one]
[1]
  Ki: 38 µM
[1]; [9]
  inhibition at 22.2 µM: 37%

## C[C@]12CCC(=O)C[C@H]1CC[C@@H]1[C@@H]2CC[C@]2(C)[C@@H](O)CC[C@@H]12 [17β-Hydroxy-5β-androstane-3-one]
[1]
  Ki: 74 µM
[1]; [9]
  inhibition at 22.2 µM: 23%

From US4340602A, “Compositions inhibiting estrogen sulfotransferase activity” (Wayne State University, priority 1978, dated 1982)
